Paper PMC11801377, “A uniquely efficacious type of CFTR corrector with complementary mode of action” (Science Advances, 2024)

Target: T1, WT-CFTR (Homo sapiens, UniProt P13569)
T1 construct: host or cells: CFBE41o-
Assay: Anti-CFTR immunoblotting (C-band) in CFBE41o- cells expressing WT-CFTR
Type: cell-based
Conditions: 24 h
Description: Cystic fibrosis bronchial epithelial (CFBE41o^−) cells stably expressing the human WT CFTR or F508del-CFTR mutant [generated in ([26])] were a gift from J. P. Clancy (University of Alabama, Birmingham) and cultured on fibronectin-coated plates (FNC coating mix; Enzo) in minimum essential medium with Earl’s salt (Thermo Fisher Scientific) containing 10% of heat-inactivated fetal bovine serum (FBS; Gibco), penicillin (100 U/ml), streptomycin ([…]) (Thermo Fisher Scientific), and puromycin (2 μg/ml; Sigma-Aldrich). […]
All cells were washed with ice-cold PBS and then lysed for 1 hour on ice with radioimmunoprecipitation assay (RIPA) buffer (Sigma-Aldrich, #R0278) containing 100 mM Na-fluoride, 4 mM Na-orthovanadate, 1 mM phenylmethylsulfonyl fluoride, 1 mM dithiothreitol, and benzonase (100 U/ml; Sigma-Aldrich). […] Samples were mixed with LDS sample buffer (Invitrogen), resolved by SDS-PAGE on 4 to 12% Novex bis-tris precast gels (Thermo Fisher Scientific), and analyzed by Western blotting using a wet transfer method (GenScript) and polyvinylidene difluoride membranes (Life Technologies). […] Membranes were treated with Western Lightning enhanced chemiluminescence substrate (PerkinElmer), and the chemiluminescence signal was recorded and quantified using a chemiluminescence reader and the corresponding software (Fusion FX 7, Evolution Edge, Vilber). […]

T1 sequence (P13569 whole entry): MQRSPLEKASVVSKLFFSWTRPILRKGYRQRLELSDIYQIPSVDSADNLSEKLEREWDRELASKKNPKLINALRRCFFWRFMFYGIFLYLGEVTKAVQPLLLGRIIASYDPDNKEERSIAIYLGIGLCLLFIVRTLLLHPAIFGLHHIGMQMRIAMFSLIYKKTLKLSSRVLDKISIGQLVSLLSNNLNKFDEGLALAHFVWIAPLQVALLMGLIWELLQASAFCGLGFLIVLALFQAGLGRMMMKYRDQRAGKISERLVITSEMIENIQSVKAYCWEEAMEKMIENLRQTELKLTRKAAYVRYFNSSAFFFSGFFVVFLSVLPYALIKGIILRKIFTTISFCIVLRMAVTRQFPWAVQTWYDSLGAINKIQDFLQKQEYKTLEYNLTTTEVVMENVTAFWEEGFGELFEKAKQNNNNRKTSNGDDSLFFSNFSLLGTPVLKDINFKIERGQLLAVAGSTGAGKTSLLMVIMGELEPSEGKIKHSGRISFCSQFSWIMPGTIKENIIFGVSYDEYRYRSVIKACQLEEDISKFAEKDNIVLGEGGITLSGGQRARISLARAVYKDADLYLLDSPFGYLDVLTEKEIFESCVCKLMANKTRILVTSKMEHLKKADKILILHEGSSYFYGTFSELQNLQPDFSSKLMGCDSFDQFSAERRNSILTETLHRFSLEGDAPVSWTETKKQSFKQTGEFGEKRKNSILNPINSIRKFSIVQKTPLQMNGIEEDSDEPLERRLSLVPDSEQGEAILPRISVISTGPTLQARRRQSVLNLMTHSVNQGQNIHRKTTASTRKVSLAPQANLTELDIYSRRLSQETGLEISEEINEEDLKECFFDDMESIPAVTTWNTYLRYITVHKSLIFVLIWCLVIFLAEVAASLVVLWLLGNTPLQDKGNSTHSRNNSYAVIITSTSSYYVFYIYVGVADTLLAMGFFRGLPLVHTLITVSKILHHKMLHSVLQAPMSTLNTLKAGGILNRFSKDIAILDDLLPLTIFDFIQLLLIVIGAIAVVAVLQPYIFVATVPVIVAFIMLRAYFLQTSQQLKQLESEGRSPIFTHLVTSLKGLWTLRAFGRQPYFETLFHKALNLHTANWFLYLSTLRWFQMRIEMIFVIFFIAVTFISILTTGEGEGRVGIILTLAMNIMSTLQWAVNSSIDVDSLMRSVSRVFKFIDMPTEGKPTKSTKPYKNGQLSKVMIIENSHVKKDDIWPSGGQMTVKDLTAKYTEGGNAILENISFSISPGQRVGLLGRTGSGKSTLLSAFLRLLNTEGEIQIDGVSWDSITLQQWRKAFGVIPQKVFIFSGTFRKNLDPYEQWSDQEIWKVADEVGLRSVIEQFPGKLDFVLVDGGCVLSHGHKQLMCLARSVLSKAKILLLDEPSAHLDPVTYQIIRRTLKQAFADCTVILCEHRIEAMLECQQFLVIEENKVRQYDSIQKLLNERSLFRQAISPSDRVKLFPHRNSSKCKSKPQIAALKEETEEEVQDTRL

## COc1cc(CCNC(=O)C2CC(=O)N(C)C(CC(C)C)C(=O)N3CCCCC3C(=O)NC(Cc3ccccc3)COc3ccc4ncc(F)cc4c3C(=O)N2)on1 (stereo not shown) [IDOR-3]
  increase in WT-CFTR C-band: ~ 2 fold
